This is an account of results in ChEMBL document CHEMBL5543153, “Discovery of a Potent Dual Son of Sevenless 1 (SOS1) and Epidermal Growth Factor Receptor (EGFR) Inhibitor for the Treatment of Prostate Cancer” (J Med Chem, 2024).

Activity calls are given as the source filed them. The rule behind the calls is not given here.

In assay [1] the target is T1, Son of sevenless homolog 1 (Homo sapiens) (UniProt Q07889).
T1 sequence (whole entry): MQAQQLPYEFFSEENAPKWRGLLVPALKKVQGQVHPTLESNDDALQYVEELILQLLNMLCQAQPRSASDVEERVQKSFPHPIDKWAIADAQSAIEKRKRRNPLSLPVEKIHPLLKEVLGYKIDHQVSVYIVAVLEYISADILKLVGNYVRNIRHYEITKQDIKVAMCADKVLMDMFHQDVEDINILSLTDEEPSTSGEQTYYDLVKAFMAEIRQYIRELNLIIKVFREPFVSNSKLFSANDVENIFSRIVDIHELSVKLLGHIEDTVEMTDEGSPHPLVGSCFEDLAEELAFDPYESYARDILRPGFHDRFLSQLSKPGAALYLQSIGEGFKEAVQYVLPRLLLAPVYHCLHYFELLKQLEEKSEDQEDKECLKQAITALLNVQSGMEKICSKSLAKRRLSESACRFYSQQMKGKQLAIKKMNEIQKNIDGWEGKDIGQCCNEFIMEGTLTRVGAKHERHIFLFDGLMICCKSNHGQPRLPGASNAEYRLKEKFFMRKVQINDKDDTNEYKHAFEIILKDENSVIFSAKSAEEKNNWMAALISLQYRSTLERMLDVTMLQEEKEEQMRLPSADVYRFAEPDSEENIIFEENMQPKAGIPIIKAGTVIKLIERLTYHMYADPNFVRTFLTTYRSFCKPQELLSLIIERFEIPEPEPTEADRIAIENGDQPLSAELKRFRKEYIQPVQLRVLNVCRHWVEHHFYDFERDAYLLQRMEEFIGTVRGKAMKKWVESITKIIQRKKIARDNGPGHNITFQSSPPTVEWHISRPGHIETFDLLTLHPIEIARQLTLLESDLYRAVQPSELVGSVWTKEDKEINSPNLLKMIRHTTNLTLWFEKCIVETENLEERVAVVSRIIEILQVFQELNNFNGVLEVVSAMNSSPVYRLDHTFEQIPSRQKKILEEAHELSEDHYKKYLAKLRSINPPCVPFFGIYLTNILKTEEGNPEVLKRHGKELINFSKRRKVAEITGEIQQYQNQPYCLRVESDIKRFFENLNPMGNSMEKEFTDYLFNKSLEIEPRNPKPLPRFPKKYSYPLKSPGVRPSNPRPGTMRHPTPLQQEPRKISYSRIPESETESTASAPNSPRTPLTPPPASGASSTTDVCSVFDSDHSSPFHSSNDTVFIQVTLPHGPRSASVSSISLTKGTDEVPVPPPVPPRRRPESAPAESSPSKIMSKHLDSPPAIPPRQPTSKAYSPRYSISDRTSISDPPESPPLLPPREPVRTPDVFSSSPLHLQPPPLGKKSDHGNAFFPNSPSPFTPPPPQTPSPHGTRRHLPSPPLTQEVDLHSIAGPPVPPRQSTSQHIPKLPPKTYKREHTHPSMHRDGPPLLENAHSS
Description: Inhibition of human recombinant SOS1 at 10 uM relative to control.

Assay [2] concerns the target Epidermal growth factor receptor (Homo sapiens, UniProt P00533). The assay is described as follows: Inhibition of EGFR (unknown origin) using ultra ULight GT peptide as substrate at 10 uM incubated for 2 hrs relative to control.
Assay [3] deals with PC-3. The assay is described as follows: cells. The class given is functional, cell-based. The conditions noted are these: Homo sapiens, PC-3, 72 h.
Description: Antiproliferative activity against human PC-3 cells assessed as inhibition of cell growth incubated for 72 hrs by MTT assay
The subject of assay [4] is PC-3. Description: cells. As to conditions: Homo sapiens, PC-3, 72 h.
Description: Synergistic antiproliferative activity against human PC-3 cells assessed as inhibition of cell growth incubated for 72 hrs in presence of gefitinib by MTT assay

Chain of Epidermal growth factor receptor (P00533 whole entry): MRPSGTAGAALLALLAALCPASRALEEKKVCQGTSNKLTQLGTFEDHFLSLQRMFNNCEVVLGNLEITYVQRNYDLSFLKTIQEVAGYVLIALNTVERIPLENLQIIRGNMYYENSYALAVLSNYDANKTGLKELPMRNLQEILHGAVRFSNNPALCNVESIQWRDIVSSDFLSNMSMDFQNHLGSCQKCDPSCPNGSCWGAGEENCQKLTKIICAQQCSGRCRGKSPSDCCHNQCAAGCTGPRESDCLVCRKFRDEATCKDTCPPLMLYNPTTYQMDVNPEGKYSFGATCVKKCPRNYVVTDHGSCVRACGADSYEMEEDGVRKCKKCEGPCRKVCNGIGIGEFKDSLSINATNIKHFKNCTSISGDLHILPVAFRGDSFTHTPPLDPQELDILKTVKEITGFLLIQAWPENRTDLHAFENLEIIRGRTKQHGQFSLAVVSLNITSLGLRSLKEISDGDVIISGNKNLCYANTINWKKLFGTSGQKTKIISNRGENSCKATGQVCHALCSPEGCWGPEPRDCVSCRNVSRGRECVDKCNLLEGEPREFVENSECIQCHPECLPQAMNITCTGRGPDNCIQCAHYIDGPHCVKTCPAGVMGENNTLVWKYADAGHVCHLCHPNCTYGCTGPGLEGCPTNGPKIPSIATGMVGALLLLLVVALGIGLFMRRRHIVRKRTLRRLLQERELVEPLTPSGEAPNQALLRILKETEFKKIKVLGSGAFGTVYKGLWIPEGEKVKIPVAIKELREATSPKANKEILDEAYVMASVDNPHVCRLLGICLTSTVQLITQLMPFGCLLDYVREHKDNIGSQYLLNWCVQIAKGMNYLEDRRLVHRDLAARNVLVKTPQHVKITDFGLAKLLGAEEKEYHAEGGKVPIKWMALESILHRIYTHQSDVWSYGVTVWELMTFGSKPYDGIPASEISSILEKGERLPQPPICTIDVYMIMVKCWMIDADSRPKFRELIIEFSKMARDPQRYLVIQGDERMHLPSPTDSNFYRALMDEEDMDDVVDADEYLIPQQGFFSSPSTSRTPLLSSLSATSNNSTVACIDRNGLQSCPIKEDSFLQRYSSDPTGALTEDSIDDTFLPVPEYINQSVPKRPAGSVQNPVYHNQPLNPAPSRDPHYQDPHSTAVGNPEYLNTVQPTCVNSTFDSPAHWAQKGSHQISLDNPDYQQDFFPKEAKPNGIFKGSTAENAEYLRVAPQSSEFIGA

The inhibition is the drop in the measured response relative to a control, in per cent. Consider `COc1cc2ncnc(NCc3ccccc3C(F)(F)F)c2cc1OC`, for which the inhibition in assay [1] was 43%; in assay [2], 90%.
For `c1ccc2c(Nc3ccc4c(c3)OCO4)ncnc2c1`, the inhibition entry in assay [1] was “inactive”. In assay [2], this compound displayed an inhibition of 91%.
For orientation: IC50 means the midpoint of a concentration-inhibition curve. The low end stands for inhibition by little substance, the high end for a need for much substance. Regarding `COc1cc2nc(C)nc(N[C@H](C)c3cc(N)cc(C(F)(F)F)c3)c2cc1O[C@H]1CCOC1`, the IC50 is 8.75 µM in the assay on PC-3 [3] and 1.37 µM with PC-3 [4].
For `Clc1ccc(CNc2ncnc3ccccc23)cc1`, the inhibition in assay [1] stood at 47%; in assay [2], 84%.
For the compound `COc1cc2ncnc(NCc3cccc(Cl)c3)c2cc1OC`, the inhibition in assay [1] was 56%; in assay [2] it was 95%.
For `CCc1cc2c(Nc3ccc(Cl)cc3)ncnc2s1`, in that order: “inactive” and 66%.
As to `Clc1cccc(Nc2ncnc3sc4c(c23)CCCC4)c1`, the inhibition result in assay [1] is “inactive”. Moreover, the inhibition in assay [2] came out at 74%.
For `CCc1cc2c(Nc3ccc(OC)cc3)ncnc2s1`, in that order: “inactive” and 64%.
The matching figures for `COc1cc2ncnc(NCc3ccc4c(c3)OCO4)c2cc1OC`: 41% and 92%.
For `c1ccc(Nc2ncnc3sc4c(c23)CCC4)cc1`, in that order: “inactive” and 70%.
For the compound `Cc1cccc(Nc2ncnc3c2cnn3C)c1`, the inhibition result in assay [1] is “inactive”. The same compound returned an inhibition in assay [2] of 73%.
The matching figures for `Cc1sc2ncnc(Nc3ccc(F)cc3)c2c1C`: “inactive” and 62%.
